Assay results published in publication PMC12888871, “Population pharmacokinetics of caspofungin in critically ill Chinese children: a prospective observational study” (Antimicrobial Agents and Chemotherapy, 2025).
Where two headings read alike, the source gives them in different places.

How the values were obtained:
[1] = Population pharmacokinetic analysis of total plasma caspofungin in PICU patients (final two-compartment model, NONMEM, n = 29, 138 samples); assay type: in vivo, human (critically ill Chinese children); conditions: for AUCss,24h, range / AUC(0-t): Bayesian posterior estimates; for AUC(0-t): plasma, iv, read-out: AUCss,24h, median
Description: (§1) A prospective clinical study was conducted among pediatrics in PICU from Children’s Hospital of Fudan University from 1 November 2022 to 30 December 2024. Children aged 3 months to 18 years who were admitted to PICU and received caspofungin therapy were eligible for inclusion. The study population encompassed critically ill children, including but not limited to those with liver insufficiency, hypoproteinemia, ECMO treatment, continuous renal replacement therapy (CRRT), or sepsis. Eligible subjects were administered a once-daily, 1-h intravenous infusion of caspofungin, following a body surface area (BSA)-based dosage regimen: a loading dose (LD) of 70 mg/m² (not to exceed 70 mg) on the first day, followed by 50 mg/m² (not exceed 70 mg) for maintenance dose (MD). BSA was calculated using the Mosteller formula: […] ([14]). All participants were provided written consent prior to participating in the study (US Clinical Trials, NCT04961593). Demographic and baseline clinical laboratory data were collected from the medical records, including age, sex, body weight, height, BSA, liver function, renal function, and various biomarkers reflecting immune system status. Information on bacterial cultures was also collected from microbiological laboratory reports. The biochemical measurements were derived from the most recent clinical laboratory results available within 7 days prior to the first caspofungin administration, reflecting the patient’s baseline physiological status.
Total caspofungin plasma concentrations were quantified using a liquid chromatography tandem mass spectrometry (LC-MS/MS) method. Blood samples were collected with EDTA-K2 as anticoagulant, and plasma was obtained by centrifugation at 4,000 g for 5 min and stored at −80°C until analysis, which would be performed within 30 days. The analysis was performed using the LC-40AD chromatographic system (Shimazu, Tokyo, Japan) combined with a 6500+ Triple Quad mass spectrometry system (AB Sciex, Framingham, USA). The separation is achieved on a Kinetex C18 column (2.1 × 50 mm, 2.6 μm) using a mobile phase composed of buffer (0.1% [vol/vol] formic acid and 5 mM ammonium acetate) and methanol (0.1% [vol/vol] formic acid). A volume of 40 μL of each plasma sample was precipitated with 260 μL of methanol with 0.4% formic acid. After centrifugation, 150 μL of the supernatants was mixed with 150 μL of water, and a volume of 1 μL of mixture was injected into the chromatographic system. The calibration range of caspofungin was linear over the range of 0.05 to 50 μg/mL with a lower limit of quantification (LLOQ) of 0.05 μg/mL. The samples with concentration that exceeded the upper limit were diluted into half by using blank plasma sample. All the analysis run met the requirement of M10 guideline for bioanalytical method validation and study sample analysis ([15]).
(§2) This study incorporated data from two study stages: the intensive sampling stage, followed by a sparse sampling stage (Fig. S1). In the first stage, the sampling time points were scheduled at pre-dose, 1, 2, 4, 8 h (if feasible) and 16 h (if feasible) following the most recent dose (the sixth administration after the first dose). The optimal sparse sampling design was then conducted to minimize the number of sampling points based on the defined constraint conditions. The designed sparse sampling time windows were pre-dose (0–1 h), 0.5–1.5, 6–7, and 23–24 h after the prior dose (the sixth administration after the first dose). The detailed optimal design process was described in the Supplemental material.
The PopPK model was developed using the non-linear mixed-effects modeling software NONMEM (version 7.5, ICON Development Solutions, Ellicott City, Maryland) with the first-order conditional estimation with interaction (FOCE-I) algorithm. […]

[2] = First-stage population pharmacokinetic model from intensive sampling (n = 14), used for optimal sampling design; assay type: in vivo, human (critically ill children)
Description: as §2
During the optimized sampling process, explicit constraint conditions were defined. In the second phase of our study, approximately 40 participants were to be recruited to receive a daily 1-hour intravenous infusion of caspofungin, with a BSA-based dosing strategy. Sampling was planned to take place within one single day after reaching steady-state levels. Given that the study subjects were pediatric patients, we aimed to minimize the number of sampling points.
Design software tools, including $DESIGN option in NONMEM and PopED (version 0.6.0, R package), were utilized to explore design elements such as sampling size, and sampling times. These tools evaluated uncertainties in PK parameter estimates based on the current sampling scheme and population pharmacokinetic (PPK) model. The designs were evaluated to ensure the precise estimation of typical PK parameters, defined as a relative standard error (RSE) of less than 50%.
Figure S1. Study flow diagram. In the first stage of the study, a population pharmacokinetic model was developed based on intensive sampling data collected from the prospective clinical study conducted among pediatrics with a small sample size in ICU. Secondly, design software tools, including $DESIGN in NONMEM and PopED, were utilized to optimize sampling design. During the third phase in our study, the optimized sampling scheme would be applied to a larger-scale study.

[3] = tested on: positive fungal culture (C. parapsilosis, C. albicans, C. tropicalis, C. guilliermondii); assay: Fungal culture conversion during caspofungin therapy; assay type: in vivo, human (critically ill children); conditions: thirteen patients with positive fungal culture during caspofungin infusion
Description: as §1, with “The biochemical measurements were derived from the most recent clinical laboratory results available within 7 days prior to the first caspofungin administration, reflecting the patient’s baseline physiological status.” left out

[4] = cited from earlier work
Description: Our results are consistent with three published pediatric PopPK studies that also employed a two-compartment model ([25][–][27]). In contrast, one other pediatric study employed a one-compartment model, probably due to its sparse PK data (48 subjects and 139 observations) ([28]). […] The b ... || Previous studies involving pediatric populations typically included body size on PK parameters. Among them, three studies ([25], [26], [28]) included BSA as a significant covariate on CL and V1 while one study ([27]) emphasized the effect of body weight. In our study, allometric BSA-based allometric scaling yielded lower OFV and AIC compared with weight, LBW, and FFM. The estimated BSA exponent for CL varied considerably across studies, likely reflecting differences in study populations.

[5] = published pediatric PK estimates

## CC[C@H](C)C[C@H](C)CCCCCCCCC(=O)N[C@H]1C[C@@H](O)[C@@H](NCCN)NC(=O)[C@@H]2[C@@H](O)CCN2C(=O)[C@H]([C@H](O)CCN)NC(=O)[C@H]([C@H](O)[C@@H](O)c2ccc(O)cc2)NC(=O)[C@@H]2C[C@@H](O)CN2C(=O)[C@H]([C@@H](C)O)NC1=O [caspofungin]
[1]; ECMO group, n = 4
  AUCss,24h, range: 17.20 to 176.04 µg·h/mL
[1]; non-ECMO group, n = 25
  AUCss,24h, range: 53.18 to 380.95 µg·h/mL
[1]; final PopPK model
  Increase in V1 associated with ECMO: 18.2 fold
  Q (inter-compartment exchange rate), estimate: 1.01 L/h
  V2 (peripheral volume), estimate: 1.63 L
[1]; final PopPK model, bootstrap n = 1,000
  V2, bootstrap (n = 1,000) median [95% CI]: 1.89 [1.20–4.29] L
[1]; final PopPK model, scaled to 0.79 m^2 (BSA exponent 1), without ECMO
  V1 (volume of the central compartment), estimate: 2.22 L
[1]; human, ECMO group, n = 4
  AUC(0-t): 117 µg·h/mL
[1]; human, non-ECMO group, n = 25
  AUC(0-t): 194 µg·h/mL
[1]; human, final PopPK model, typical value scaled to a 0.79 m^2 individual (BSA exponent 0.66), 1-h iv infusion once daily, total plasma, LC-MS/MS, n = 29, read-out: CL, estimate (converted)
  clearance: 3.27 mL/min
[1]; this study, final PopPK model
  BSA-normalized CL: 0.248 L/h/m^2
  BSA-normalized V1: 2.81 L/m^2
  Elimination rate constant (ke): 0.088 h⁻¹
[2]; exponent on AST/52.5
  The effect of AST on Q, final estimate: 0.898
[2]; human, plasma, iv, n = 14, CL = 0.477 x (weight/70)^0.75, read-out: CL, final estimate (converted)
  clearance: 7.95 mL/min
[2]; n = 14, Q = 0.512 x (weight/70)^0.75 x (AST/52.5)^0.898
  Q, final estimate: 0.512 L/h
[2]; n = 14, V1 = 11.8 x (weight/70)^1
  V1, final estimate: 11.8 L
[2]; n = 14, V2 = 19.2 x (weight/70)^1
  V2, final estimate: 19.2 L
[3]
  Culture conversion in patients with positive fungal culture: all of them eventually achieved successful culture conversion to negative
[4]; other four pediatric studies
  Elimination rate constant (ke), median: 0.0875 h⁻¹
  Elimination rate constant (ke), range: 0.074 to 0.101 h⁻¹
[4]; [5]
  BSA-normalized clearance, median: 0.208 L/h/m^2
  BSA-normalized clearance, range: 0.126–0.21 L/h/m^2
  BSA-normalized volume of distribution (V1), median: 2.19 L/m^2
  BSA-normalized volume of distribution (V1), range: 1.72–2.62 L/m^2
